Measurements as given in US7692014B2, “Inhibitors of the HIV integrase enzyme” (Pfizer, Inc., priority 2004, dated 2010).
Where two headings read alike, the source gives them in different places.

Legend:
[1] = biological target: T1, Full-length wild type HIV-1 integrase (SF1) (Human immunodeficiency virus type 1 group M subtype B, UniProt P04585); assay: Integrase strand-transfer scintillation proximity assay; format: biochemical
T1 construct: made in house; host or cells: E. coli BL21 (DE3), pET24a vector
Excerpt: Integrase Strand-Transfer Scintillation Proximity Assay Oligonucleotides
The annealed product represents preprocessed viral ds-DNA derived from the LTR U5 sequence of the viral genome. A ds-DNA control to test for non-specific interactions was made using a 3′ di-deoxy derivative of oligonucleotide #1 annealed to oligonucleotide #2. The CA overhang at the 5′ end of the non-biotinylated strand of the ds-DNA was created artificially by using a complimentary DNA oligonucleotide shortened by 2 base pairs. This configuration eliminates the requisite 3′ processing step of the integrase enzyme prior to the strand-transfer mechanism.
Host ds-DNA was prepared as an unlabeled and [^3H]-thymidine labeled product from annealed oligonucleotide #3—5-[…]-3′ (SEQ ID NO: 3), and oligonucleotide #4—5′-[…]-3′ (SEQ ID NO: 4), both synthesized by TriLink BioTechnologies, Inc. (San Diego, Calif.). The annealed product had overhanging 3′ ends of poly(dA). […] The radiolabeled product was purified using a NENSORB cartridge and stored in stabilized aqueous solution (PerkinElmer).
Reagents: Streptavidin-coated polyvinyltoluene (PVT) SPA beads were purchased from Amersham Biosciences (Piscataway, N.J.). Cesium chloride was purchased from Shelton Scientific, Inc. (Shelton, Conn.). White, polystyrene, flat-bottom, non-binding surface, 96-well plates were purchased from Corning. All other buffer components were purchased from Sigma (St. Louis, Mo.) unless otherwise indicated. Enzyme Construction: Full-length wild type HIV-1 integrase (SF1) sequence (amino acids 1-288) was constructed in a pET24a vector (Novagen, Madison, Wis.). […] Enzyme Purification: Full length wild-type HIV Integrase was expressed in E.coli BL21 (DE3) cells and induced with 1 mM isopropyl-1 thio-β-D-galactopyranoside (IPTG) when cells reached an optical density between 0.8-1.0 at 600 nm. Cells were lysed by microfluidation in 50 mM HEPES pH 7.0, 75 mM NaCl, 5 mM DTT, 1 mM 4-(2-Aminoethyl)benzenesulfonylfluoride HCl (AEBSF). Lysate was then centrifuged 20 minutes at 11 k rpm in GSA rotor in Sorvall RC-5B at 4° C. Supernant was discarded and pellet resuspended in 50 mM HEPES pH 7.0, 750 mM NaCl, 5 mM DTT, 1 mM AEBSF and homogenized in a 40 mL Dounce homogenizer for 20 minutes on ice. Homogenate was then centrifuged 20 minutes at 11 k rpm in SS34 rotor in Sorvall RC-5B at 4° C. Supernant was discarded and pellet resuspended in 50 mM HEPES pH 7.0, 750 mM NaCl, 25 mM CHAPS, 5 mM DTT, 1 mM AEBSF. Preparation was then centrifuged 20 minutes at 11 k rpm in SS34 rotor in Sorvall RC-5B at 4° C.
Supernant was then diluted 1:1 with 50 mM HEPES pH 7.0, 25 mM CHAPS, 1 mM DTT, 1 mM AEBSF and loaded onto a Q-Sepharose column pre-equilibrated with 50 mM HEPES, pH 7.0, 375 mM NaCl, 25 mM CHAPS, 1 mM DTT, 1 mM AEBSF. The flow through peak was collected and NaCl diluted to 0.1 M with 50 mM HEPES pH 7.0, 25 mM CHAPS, 1 mM DTT, 0.5 mM AEBSF and loaded onto a SP-Sepharose column pre-equilibrated with 50 mM HEPES pH 7.0, 100 mM NaCl, 25 mM CHAPS, 1 mM DTT, 0.5 mM AEBSF. After washing the column with the equilibration buffer, a 100 to 400 mM NaCl gradient was run. The eluted integrase was concentrated and run on a S-300 gel diffusion column using 50 mM HEPES pH 7.0, 500 mM NaCl, 25 mM CHAPS, 1 mM DTT, 0.5 mM AEBSF. […] All columns were run in a 4° C. cold room.
Viral DNA Bead Preparation: Streptavidin-coated SPA beads were suspended to 20 mg/mL in 25 mM 3-morpholinopropanesulfonic acid (MOPS) (pH 7.2) and 1.0% NaN3.

[2] = system: RF strain of HIV-1 in CEM-SS cells; assay: HIV-1 cell protection assay (XTT dye reduction); format: cell-based; settings: Human immunodeficiency virus 1, CEM-SS, 144 h, HIV-1 RF, six days
Procedure: HIV-1 Cell Protection Assay
The antiviral activities of potential modulator compounds (test compounds) were determined in HIV-1 cell protection assays using the RF strain of HIV-1, CEM-SS cells, and the XTT dye reduction method (Weislow, O. S. et al., J. Natl. Cancer Inst. 81: 577-586 (1989)). Subject cells were infected with HIV-1 RF virus at an moi of 0.025 to 0.819 or mock infected with medium only and added at 2×10^4 cells per well into 96 well plates containing half-log dilutions of test compounds. Six days later, 50 μl of XTT solution (1 mg/ml XTT tetrazolium and […] phenazine methosulfate) were added to the wells and the plates were reincubated for four hours. Viability, as determined by the amount of XTT formazan produced, was quantified spectrophotometrically by absorbance at 450 nm.
Data from CPE assays were expressed as the percent of formazan produced in compound-treated cells compared to formazan produced in wells of uninfected, compound-free cells. […] The therapeutic index was calculated by dividing the cytotoxicity (CC50) by the antiviral activity (EC50).

[3] = integrase strand-transfer SPA, read-out: IC50

Compound `COCCOCc1cn(Cc2ccc(F)cc2)c2cnc3c(=O)n(O)ccc3c12` [Example 9, 3-(4-fluorobenzyl)-7-hydroxy-1-[(2-methoxyethoxy)methyl]-3,7-dihydro-6H-pyrrolo[2,3-c]-1,7-naphthyridin-6-one] has an IC50 [1, 3] of 15 nM and an EC50 [2] of 0.53 nM.

In the case of `C[C@@H](OCc1cn(Cc2ccc(F)cc2)c2cnc3c(=O)n(O)ccc3c12)c1ccccc1` [Example 38, 3-(4-fluorobenzyl)-7-hydroxy-1-{[(1R)-1-phenylethoxy]methyl}-3,7-dihydro-6H-pyrrolo[2,3-c]-1,7-naphthyridin-6-one], the IC50 [1, 3] is reported as 120 nM and the EC50 [2] is reported as 0.3 nM.

For `CN(Cc1ccccc1)Cc1cn(Cc2ccc(F)cc2)c2cnc3c(=O)n(O)ccc3c12` [Example 54, 1-{[benzyl(methyl)amino]methyl}-3-(4-fluorobenzyl)-7-hydroxy-3,7-dihydro-6H-pyrrolo[2,3-c]-1,7-naphthyridin-6-one], the IC50 ([1]; IC50, integrase strand-transfer SPA) was 13.5 nM.

`O=c1c2ncc3c(c(CN4CCN5C[C@H](O)CC5C4)cn3Cc3ccc(F)cc3)c2ccn1O` (stereo partly drawn) [Example 55, 3-(4-fluorobenzyl)-7-hydroxy-1-{[(7R)-7-hydroxyhexahydropyrrolo [1,2-a]pyrazin-2(1H)-yl]methyl}-3,7-dihydro-6H-pyrrolo[2,3-c]-1,7-naphthyridin-6-one] was tested, and the IC50 [1, 3] was 7 nM.

`O=C1NC[C@@H]2CCN(Cc3cn(Cc4ccc(F)cc4)c4cnc5c(=O)n(O)ccc5c34)C[C@H]12` [Example 56, 3-(4-fluorobenzyl)-7-hydroxy-1-{[(3aR,7aR)-3-oxooctahydro-5H-pyrrolo[3,4-c]pyridin-5-yl]methyl}-3,7-dihydro-6H-pyrrolo[2,3-c]-1,7-naphthyridin-6-one] showed an IC50 [1, 3] of 11.5 nM.

Compound `O=c1c2ncc3c(c(CN4CCOCC4)cn3Cc3ccc(F)cc3)c2ccn1O` [Example 57, 3-(4-fluorobenzyl)-7-hydroxy-1-(morpholin-4-ylmethyl)-3,7-dihydro-6H-pyrrolo[2,3-c]-1,7-naphthyridin-6-one] has an IC50 [1, 3] of 7 nM.

`O=c1c2ncc3c(c(CN4CCN(CCN5CCOCC5)CC4)cn3Cc3ccc(F)cc3)c2ccn1O` [Example 58, 3-(4-fluorobenzyl)-7-hydroxy-1-{[4-(2-morpholin-4-ylethyl)piperazin-1-yl]methyl}-3,7-dihydro-6H-pyrrolo[2,3-c]-1,7-naphthyridin-6-one] was tested, and the IC50 [1, 3] was 22 nM.

With `CN(Cc1cnn(-c2ccccc2)c1)Cc1cn(Cc2ccc(F)cc2)c2cnc3c(=O)n(O)ccc3c12` [Example 59, 3-(4-fluorobenzyl)-7-hydroxy-1-({methyl[(1-phenyl-1H-pyrazol-4-yl)methyl]amino}methyl)-3,7-dihydro-6H-pyrrolo[2,3-c]-1,7-naphthyridin-6-one] the IC50 [1, 3] was 19 nM.
